Several values for one entry are separate records, joined by “and”; a condition that tells them apart may be missing. Equal values may be shown once. Read-outs that look alike come from different tables or passages of the source.
Columns and labels:
A2780cis cells = assay: Photo- and cytotoxic activity determination (MTT), A2780cis cells, normoxia or hypoxia; type: cell-based
How it was run: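 Dark and light IC50 values come from MTT viability (A570) after 1 h compound exposure in the dark, then 1 h under 520 nm light at 1.5 mW/cm^2 or continued darkness, and 48 h drug-free recovery. Phototherapeutic index is dark/light IC50. A2780cis were kept resistant with 1 μM cisplatin every second passage.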

A2780 = assay: Photo- and cytotoxic activity determination (MTT), A2780 cells; type: cell-based; details: normoxia; for IC50: 48 h drug-free medium
Text: (§1) Having shown that the Ir(III)-COUPY conjugates can sensitize both type I and II ROS through spectroscopic techniques and readily internalize into living cells, their photocytotoxicity was screened in various cancer cell lines. This screening included two representative melanoma cell lines (human A375 and […] human SK-MEL-28) and cancer cells with resistance to the clinical drug cisplatin. For the latter, both sensitive and cisplatin-resistant ovarian cancer cells (A2780 and A2780cis) as well as HeLa cells, which also show a degree of chemoresistance to the platinum anticancer drug in vitro,[54] were used. For the determination of dark and light cytotoxicity, dose–response curves were assayed from both conditions to provide the correspondent IC50 values, which correspond to the concentration needed for inhibition of cell growth by 50%. Phototherapeutic index (PI) was calculated as the ratio of dark to light IC50 value for each compound.
(§2) A375, HeLa, and SK-MEL-28 cells were cultured in Dulbecco’s modified Eagle medium (DMEM) supplemented with 10% FBS, L-glutamine, and 1% penicillin–streptomycin. A2780 and A2780cis cells were grown in RPMI-1640 cell medium supplemented with 10% fetal bovine serum (FBS) and 2 mM L-glutamine. Acquired resistance to cisplatin in the A2780cis cell line was maintained by adding cisplatin 1 μM to culture medium every second passage. Cells were cultured in a humidified incubator at 310 K with 5% CO2 atmosphere and subcultured two or three times a week with appropriate densities and were confirmed to be mycoplasma-free using a standard Hoechst DNA staining method.
(§3) A2780, A2780cis, HeLa, A375, and SK-MEL-28 cells were maintained at logarithmic growth-phase and cultured in 96-well plates at a density of 5000 cells/well in complete medium for 24 h at 310 K, 5% CO2 in a humidified incubator. For hypoxia experiments, a hypoxia condition was set up by Tissue Culture Service at University of Murcia using nitrogen (N2) to displace O2 down to a minimum of 2% in a Forma Steri-Cycle i160 incubator (Thermo Fisher Scientific). Serial dilutions of the compounds were added at the final concentrations in the range of 0–100 μM in a final volume of 100 μL per well. A light-based treatment schedule was performed as follows: 1 h incubation with the compounds in the dark, followed by 1 h incubation under irradiation conditions by placing the Photoreactor EXPO-LED from Luzchem (Canada) fitted with green lamps (final light intensity applied of 1.5 mW/cm^2 at λmax = 520 nm) inside the CO2 incubator. All the cell culture plates subjected to light irradiation included untreated controls to verify that cell viability was not affected by light. Then, treatment-containing media was removed, and fresh media was added for a 48 h cell recovery period; the temperature throughout the experiment remained at 310 K. Dark control samples were placed in the same dark conditions and then kept incubated for 1 h in the dark in the humidified CO2 incubator. Medium was then aspirated by suction, cells were loaded with 50 μL of MTT solution (1 mg/mL) for additional 4 h and then removed, and 50 μL of DMSO was added to solubilize the purple formazan crystals formed in active cells. The absorbance was measured at 570 nm using a microplate reader (FLUOstar Omega), and the IC50 values were calculated based on the inhibitory rate curves using the following equation [drawing 4] 4 where I represents the percentage inhibition of viability observed, Imax is the maximal inhibitory effect, IC50 is the concentration that inhibits 50% of maximal growth, C is the concentration of the treatment, and n is the slope of the semi-logarithmic dose–response sigmoidal curves. The non-linear fitting was performed using SigmaPlot 14.0 software. All experiments were performed in three independent studies with n = 3 replicates per concentration level. For a detailed phototoxicity procedure, ref ([43]) includes technical explanations.

A375 = assay: Photo- and cytotoxic activity determination (MTT), A375 cells; type: cell-based, human; details: normoxia; for IC50: 48 h drug-free medium
Text: as §1, §2, §3

HeLa = assay: Photo- and cytotoxic activity determination (MTT), HeLa cells; type: cell-based; details: normoxia; for IC50: 48 h drug-free medium
Text: as §1, §2, §3

[1] = 520 nm, dark tested up to 100 μM

SMILES: CCCCn1c2[n+](c3cc(C(=O)NC[C@H]4CC[C@H](C(=O)NCCCNC(=O)C[n+]5ccc(/C(C#N)=C6/C=C(C)c7ccc(N(CC)CC)cc7O6)cc5)CC4)ccc31)[Ir-3]13([c]4ccccc4-c4[nH]c5ccccc5[n+]41)([c]1ccccc1-c1[nH]c4ccccc4[n+]13)[n+]1c-2ccc2ccccc21 [3e]
- Partial inhibition (% of cell growth inhibition with respect to untreated controls), Hypoxia (A2780cis cells; 250 μM, A2780cis, 2 h incubation in the dark, 48 h drug-free recovery, hypoxia): 12 ± 3%
- Partial inhibition (% of cell growth inhibition with respect to untreated controls), Normoxia (A2780cis cells; 250 μM, A2780cis, 2 h incubation in the dark, 48 h drug-free recovery, normoxia): 18 ± 1%
- Hypoxia PI (phototherapeutic index) (A2780cis cells; A2780cis, hypoxia 2% O2, 520 nm, dark tested up to 250 μM): > 147.1 and > 147
- IC50 (A2780cis cells; A2780cis, hypoxia 2% O2, dark, tested up to 250 μM, read-out: Hypoxia Dark IC50): > 250 µM
- Normoxia PI (phototherapeutic index) (A2780cis cells; A2780cis, normoxia 21% O2, 520 nm, dark tested up to 250 μM): > 268.8 and > 269
- IC50 (A2780cis cells; A2780cis, normoxia 21% O2, dark, tested up to 250 μM, read-out: Normoxia Dark IC50): > 250 µM
- IC50 (A2780cis cells; hypoxia, 520 nm, read-out: A2780cis Light 520 nm IC50 (microM) Hypoxia): 1.7 ± 0.3 µM
- IC50 (A2780cis cells; hypoxia, dark, read-out: A2780cis Dark IC50 (microM) Hypoxia): > 250 µM
- A2780cis PI (phototherapeutic index), IC50 dark/IC50 irradiated (A2780cis cells; normoxia, 520 nm, dark tested up to 100 μM): > 108
- IC50 (A2780cis cells; normoxia, 1 h incubation + 1 h green light 520 nm, 1.5 mW cm^–2, 48 h drug-free medium, read-out: A2780cis light IC50): 0.93 ± 0.04 µM
- IC50 (A2780cis cells; normoxia, dark, up to 250 microM, read-out: A2780cis Dark IC50 (microM) Normoxia): > 250 µM
- IC50 (A2780cis cells; normoxia, kept in the dark, tested up to 100 μM, 2 h treatment, 48 h drug-free medium, read-out: A2780cis dark IC50): > 100 µM
- A2780 PI (phototherapeutic index), IC50 dark/IC50 irradiated (A2780; [1]): > 53
- IC50 (A2780; 1 h incubation + 1 h green light 520 nm, 1.5 mW cm^–2, read-out: A2780 light IC50): 1.9 ± 0.2 µM
- IC50 (A2780; kept in the dark, 2 h treatment, read-out: A2780 dark IC50): > 100 µM
- A375 PI (phototherapeutic index), IC50 dark/IC50 irradiated (A375; [1]): > 5
- IC50 (A375; 1 h incubation + 1 h green light 520 nm, 1.5 mW cm^–2, read-out: A375 light IC50): 19 ± 3 µM
- IC50 (A375; kept in the dark, 2 h treatment, read-out: A375 dark IC50): > 100 µM
- HeLa PI (phototherapeutic index), IC50 dark/IC50 irradiated (HeLa; [1]): > 11
- IC50 (HeLa; 1 h incubation + 1 h green light 520 nm, 1.5 mW cm^–2, read-out: HeLa light IC50): 9.3 ± 0.8 µM
- IC50 (HeLa; kept in the dark, 2 h treatment, read-out: HeLa dark IC50): > 100 µM
